# Source: patent publication US9949992B2, “Bisphosphonate compositions and methods for treating and\or reducing cardiac dysfunction” (DUKE UNIVERSITY, priority 2011, dated 2018)
# What was measured:
# [1] = Hydroxyapatite (HAP) affinity by chromatographic profiling on HAP column; type: binding; conditions: phosphate gradient 1 mM to 1000 mM, pH 6.8
# ERK = test: Expression and activation (phosphorylation) of ERK in myocardial tissue, SHAM or TAC mice, immunoblot and densitometry; type: in vivo, mouse
# [2] = target: T1, human farnesyl pyrophosphate synthase (FPPS) (Homo sapiens, UniProt P14324); test: FPPS inhibition, in vitro, recombinant enzyme; type: biochemical; conditions: GPP and IPP 10 μM each, 37° C., read-out: FFPPS nM IC50
# T1 construct: made in house
# T1 sequence (P14324 67-419 limits assumed): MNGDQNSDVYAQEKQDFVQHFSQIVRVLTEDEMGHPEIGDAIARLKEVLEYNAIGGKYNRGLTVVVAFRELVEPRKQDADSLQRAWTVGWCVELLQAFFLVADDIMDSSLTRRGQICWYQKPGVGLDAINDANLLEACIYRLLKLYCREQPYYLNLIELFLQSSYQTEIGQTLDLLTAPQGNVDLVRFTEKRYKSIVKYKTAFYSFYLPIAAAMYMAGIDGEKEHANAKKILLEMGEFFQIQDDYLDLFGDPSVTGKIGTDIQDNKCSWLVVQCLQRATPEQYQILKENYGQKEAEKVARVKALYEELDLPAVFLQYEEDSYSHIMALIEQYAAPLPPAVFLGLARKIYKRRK
smiles,measurement,setting,value
O=P(O)(O)C(O)(Cc1cccnc1)P(=O)(O)O [Risedronate],HAP mineral binding (retention time in mins),[1],9.97 min
CCCCCN(C)CCC(O)(P(=O)(O)O)P(=O)(O)O [Ibandronate],HAP mineral binding (retention time in mins),[1],~11 min
"O=P(O)(O)C(F)(Cc1cnc2ccccn12)P(=O)(O)O [Ox-14, 1-fluoro-2-(imidazo-[1,2-a]pyridine-3-yl)-ethyl-bisphosphonic acid]",HAP mineral binding (retention time in mins),[1],6.17 min
same,level of expression of ERK,"ERK; SHAM animals, FIG. 1, myocardial lysate, subcutaneous dosing",did not change
same,phosphorylation of ERK,"ERK; SHAM animals, FIG. 1 and FIG. 2, myocardial lysate",not as evident
same,"pERK/tERK ratio, fold increase","ERK; SHAM group, with respect to saline treated SHAM animals, FIG. 3",~3 fold
same,level of phosphorylation of ERK,"ERK; TAC conditioned animals, FIG. 2",substantial increase
same,"pERK/tERK ratio, fold increase","ERK; TAC group relative to saline SHAM group, FIG. 3",~5 fold
same,pERK/tERK activity relative to zoledronic acid administered TAC group,"ERK; TAC group, FIG. 3",about double
same,IC50,[2],2.5 nM
O=P(O)(O)C(O)(Cc1cnc2ccccn12)P(=O)(O)O [Minodronate],HAP mineral binding (retention time in mins),[1],10.33 min
